We go through two molecules from patent publication US8686046B2, “Compositions and methods for inhibiting sphingosine kinase” (University of Virginia Patent Foundation, priority 2008, dated 2014).

The test system of one data set is SphK. The data set is described as follows: SphK inhibition.
Data set [1] concerns SMCs. In words: PDGF-BB-induced SMC proliferation by BrdU incorporation. To be noted: FIG. 21A. It counts as cell-based. The method, then:
Cell proliferation was measured by BrdU incorporation.

The next data set addresses T1, Sphk1 (Rattus norvegicus, UniProt Q91V26).
T1 construct: endogenous in cells; host or cells: cultured rat aortic smooth muscle cells
The data set is described as follows: Sphk1/Sphk2 activity in PDGF-BB-stimulated smooth muscle cells (P32 ATP kinase assay). It counts as cell-based. To be noted: cultured rat aortic smooth muscle cells stimulated with PDGF-BB; FIG. 19B. The method, then:
(§1) Smooth muscle cells (SMCs) are treated with platelet-derived growth factor BB (PDGF-BB), a potent modulator of SMC.
(§2) FIG. 19 illustrates the PDGF-BB increase Sphk1 mRNA, Spkh1 (not Sphk2) activity and S1P production. […] Cultured rat aortic smooth muscle cells were stimulated with PDGF-BB. 19A.) Real-time PCR analysis of Sphk1 mRNA at various time points compared to vehicle control. 19B.) Analysis of Sphk1 and Sphk2 activity (P^32ATP kinase assay). 19C.) S1P concentration in the media 12 hours after stimulating SMCs with PDGF-BB.

The subject of data set [2] is SMCs. The data set is described as follows: Images of SMCs treated with and without compound. The class given is cell-based. Particulars: FIG. 21C.
In data set [3] the test system is SMCs. The data set is described as follows: Cell cytotoxicity by Promega caspase activity assay. It counts as cell-based. Particulars: after 24 hr treatment, FIG. 21B.
A further data set deals with S1P production. The data set is described as follows: S1P production by smooth muscle cells (LC/MS). It counts as cell-based, rat. The method, then: as §1, §2

T1 sequence (Q91V26 whole entry): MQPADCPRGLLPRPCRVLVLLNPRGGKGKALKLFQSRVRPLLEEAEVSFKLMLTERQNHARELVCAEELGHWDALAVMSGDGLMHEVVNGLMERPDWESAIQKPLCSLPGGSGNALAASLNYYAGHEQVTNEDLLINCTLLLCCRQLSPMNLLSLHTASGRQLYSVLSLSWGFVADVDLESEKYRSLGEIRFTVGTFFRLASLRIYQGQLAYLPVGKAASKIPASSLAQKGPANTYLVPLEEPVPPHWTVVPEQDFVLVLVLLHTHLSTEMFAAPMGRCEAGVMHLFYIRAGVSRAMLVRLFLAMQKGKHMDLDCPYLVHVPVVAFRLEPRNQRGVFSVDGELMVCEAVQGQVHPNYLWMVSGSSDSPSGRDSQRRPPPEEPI

Turning to `CCCCCCCCc1ccc(C(=O)NC(C)C(N)=O)cc1` (stereo not drawn) [VPC94193], the “SphK inhibition (description)” value in the data set with SphK is “inactive form”. Also, in the data set on SMCs [1], the “PDGF-BB-induced SMC proliferation” value was “prevented PDGF-BB-induced SMC proliferation”.

Consider `CCCCCCCCc1ccc(C(=O)N[C@@H](C)C(=N)N)cc1` [VPC94075], for which the “PDGF-BB-induced Sphk1 activity” value at Sphk1 was “prevents PDFD-BB-induced Sphk1 activity”. Moreover, the “SphK inhibition (description)” value in the data set with SphK is reported as “non-selective SphK inhibitor”. Further, in the data set on SMCs [2], the “SMC proliferation as indicated by differences in confluence” value is on record as “prevention of SMC proliferation” and the cell morphology result is recorded as “healthy cell morphology”. Moreover, in the data set on SMCs [3], the cell death result is listed as “does not induce cell death”. For the same molecule, the “PDGF-BB-induced S1P production” value with S1P production (10 uM, S1P in media 12 hours after stimulating SMCs with PDGF-BB, FIG. 19C) is “blocks PDGF-BB-induced S1P production”. Besides, the “endogenous and PDGF-BB-induced S1P production” value with S1P production (concentration not given) was “suppresses both endogenous and PDGF-BB-induced S1P production”.
